Reference: the METLIN SMRT retention time set (Domingo-Almenara et al. 2019)

Test: gradient 5% acetonitrile 3 min, to 50% in 2 min, to 85% in 15 min, held 3 min, 100 µL/min
Settings: column: Zorbax Extend-C18 2.1 x 50 mm; eluents: water / acetonitrile, 0.1% formic acid
How it was run: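 Pure standards were run in mixtures of ~100 molecules by HPLC coupled to a quadrupole time-of-flight mass spectrometer. The column was a Zorbax Extend-C18 (2.1 × 50 mm, 1.8 μm) at 100 μL/min, with water and acetonitrile each containing 0.1% formic acid, in positive and negative ionization mode. Dead and dwell volumes were 40 μL and 900 μL. Retention time was taken from computationally picked adduct peaks, each manually inspected, with data collected over 3 months.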

SMILES	RP-LC retention time
CCCN(CCC)S(=O)(=O)c1ccc(C(=O)Nc2nc(-c3ccc(F)cc3)cs2)cc1	1240 s
CC(C)CCNC(=O)CN1C(=O)CC(c2cccs2)=Nc2ccccc21	888 s
COc1ccc(C(=O)Nc2ccc3nc(N4CCN(CCC#N)CC4)cc(C(=O)O)c3c2)cc1	599 s
COc1cc(Cl)c(NS(=O)(=O)c2cc(-c3cc(C(F)(F)F)[nH]n3)sc2C)c(OC)c1	1030 s
CC(C)c1ccc(NC(=O)Cn2cnc3c(sc4nc(-c5ccccc5)ccc43)c2=O)cc1	1180 s
Cc1cc(N2CCCCC2C)n2nc(-c3ccccc3)nc2n1 (configuration not stated)	966 s
CCN1CCN(CC(=O)Nc2ccc(C(C)=O)cc2)C(=O)C1=O	580 s
CCCN1C(=O)CCc2c(C)ncnc21	611 s
NS(=O)(=O)c1ccc(CCNC(=O)c2nc(Cn3nc(-c4ccc(F)cc4)ccc3=O)no2)cc1	733 s
COc1ccc(CNC(=O)c2cc3sccc3n2C)cc1	894 s
O=c1n(Cc2nc(-c3ccc(F)c(Br)c3)no2)nc2ccc(-c3ccccc3)nn12	1010 s
O=C(NCc1ccc2[nH]c3c(c2c1)CCCC3)C1CC1	735 s
Cc1ccsc1C(=O)Nc1cnn(-c2ncncc2N2CCC(C)CC2)c1	918 s
CCC(C)C(NC(=O)Cc1ccc(OC)cc1Cl)C(=O)Nc1nc2ccccc2[nH]1 (configuration not stated)	772 s
CCC(CC)NC(=O)C1Cn2cccc2C(=O)N1CC(C)C (configuration not stated)	756 s
CC1(C(=O)NC2CCCCCCC2)CN(S(C)(=O)=O)CC(=O)N1Cc1cccc(F)c1 (configuration not stated)	956 s
COc1ccc(-c2nc3ccccn3c2Nc2ccc(C)cc2)cc1O	663 s
Brc1ccc(OCc2nn3c(-c4cccnc4)nnc3s2)cc1	885 s
CC(C)Cn1c(=O)c(N2CCC(NC(=O)NCc3ccccc3)CC2)nc2ccccc21	980 s
Cc1ccn2c(Nc3ccc4c(c3)OCO4)c(-c3ccc(O)cc3)nc2c1	629 s
CCN(CC)S(=O)(=O)N1CCC(C(=O)NCCc2ccccc2)CC1	817 s
CSc1cccc(NC(=O)Nc2nc(-c3ccccc3)cs2)c1	1090 s
O=C(CCn1nnc2ccccc2c1=O)NCCn1ncccc1=O	584 s

SMILES	RP-LC retention time
Cc1cccc(NS(=O)(=O)c2c[nH]c3ncccc23)c1C	762 s
O=C(Cn1cc(S(=O)(=O)N2CCCCCC2)ccc1=O)N1CCCc2ccccc21	900 s
COc1ccc(-c2n[nH]c3c2C(c2ccc(OC)c(OC)c2)NC3=O)cc1 (configuration not stated)	637 s
O=C(Nc1nc2ccccc2s1)C1CCN(C(=O)c2cccc(F)c2)CC1	821 s
COc1ccc(Cn2nc3ccc(S(=O)(=O)N4CCC(C)CC4)cn3c2=O)cc1F	1340 s
Cc1cc(-c2nnc(C3CCC3)o2)c(C)n1CC(=O)NCc1cccc(C(F)(F)F)c1	937 s
Cc1nc2c(NC(=O)c3cccs3)cccn2n1	690 s
COc1ccc(CNC(=O)COc2ccc(NC(=O)C3CC3)cn2)cc1OC	666 s
O=C(CN(c1ccc(F)cc1)S(=O)(=O)c1cccnc1)NCCc1ccccc1	789 s
COC(=O)c1ccc(-c2nc3cnccn3c2Nc2ccc(C)c(Br)c2)cc1	1040 s
Cc1cnc(-c2ccccc2)n1CCNS(=O)(=O)c1ccccc1	629 s
Cc1ccc(C(=O)NCc2noc(C3CCCC3)n2)cc1	842 s
COc1ccc(NC(=O)Cn2cc(C(=O)C3CC3)c3ccccc32)cc1	864 s
CC1(C(=O)NC2CCCCCC2)CN(S(C)(=O)=O)CC(=O)N1Cc1cccc(F)c1 (configuration not stated)	885 s
CC(C)c1nncn1C1CCN(S(=O)(=O)Cc2ccc(Cl)cc2)CC1	742 s
Cc1cc(C2CCCN2C(=O)Cc2c(F)cccc2Cl)no1 (configuration not stated)	829 s
COc1ccc(-c2cn3c(CC(=O)N4CCN(c5ncccn5)CC4)csc3n2)cc1OC	639 s
CC(C)NCc1ccc(-c2ccccc2Cl)o1	673 s
CCOCCCNC(=O)c1csc(-c2ccnc(N3CCCC3)c2)n1	592 s
OC1CCCCC1N1CCC(c2ccccc2)CC1 (configuration not stated)	679 s
CCn1nccc1C(=O)NC(C)(C)c1nc2c(c(C(N)=O)n1)OCO2	614 s
CCOc1ccccc1-c1noc(CN2N=NC3C(=O)N(c4cc(OC)cc(OC)c4)C(=O)C32)n1 (configuration not stated)	962 s
CCOC(=O)C1CCN(S(=O)(=O)c2ccc(Cl)c(-c3nnc(-c4ccccc4)o3)c2)CC1	1130 s

SMILES	RP-LC retention time
O=C(NCc1cccs1)c1ccc2c(c1)CC(=O)N2Cc1ccc(F)cc1	840 s
CC(C)NC(=O)c1ccc(OCC2CCN(C(=O)c3cc(F)ccc3Cl)CC2)cc1	891 s
O=C(Nc1ccc(-c2nc(-c3cccc(Br)c3)co2)cc1)c1ccco1	1150 s
O=S(=O)(c1cc(-c2nnc(C3CCC3)o2)co1)N1CCN(c2cccc(Cl)c2)CC1	1120 s
CCCc1nc(-c2ccccc2)oc1CC(=O)Nc1cccc(Cl)c1C	1080 s
COc1ccc(C2(C(=O)N3CC(F)(F)C[C@H]3CN3CCN(C)CC3)CC2)cc1	641 s
O=C(CCC1CCCN(C(=O)Nc2ccccc2)C1)NCc1cccc(F)c1 (configuration not stated)	806 s
Cc1cc(=O)n(CC(=O)N2CCCc3ccccc32)c(N2CCCCC2)n1	703 s
COc1cccc(CNc2ccc3[nH]c(=O)[nH]c3c2)c1OC	593 s
O=C1NC2(CCN(C(=O)Cc3ccccc3)CC2)Nc2c(Cl)cccc21	756 s
CCOc1ccc(-c2csc(NC(=O)CCCOc3ccc(OC)cc3)n2)cc1	1080 s
CN(C)CCNCc1ccc(-c2ccc(Br)cc2)o1	598 s
CCc1nnc2ccc(-c3noc(Cc4cccc(Cl)c4)n3)cn12	896 s
CCOc1cccc(-c2noc(CCn3nc(-c4ccc(F)cc4)ccc3=O)n2)c1	1060 s
O=C(CCCn1c(=O)c2cccn2c2ccc(Br)cc21)NCc1ccccn1	646 s
Cc1ccc(S(=O)(=O)NCCn2c(C)cnc2C2CCC2)cc1F	637 s
CC(=O)Nc1nsc(N2CCC(C(=O)N3CCN(c4cc(C)ccc4C)CC3)CC2)n1	820 s
Cc1cc(C)n(-c2ccnc(N3CCC(C(=O)NCc4ccc(F)cc4)CC3)n2)n1	833 s
COc1ccc(N2CC(c3nnc(NC(=O)c4ccccc4Br)o3)CC2=O)cc1 (configuration not stated)	703 s
Cc1ccc(-c2csc(Nc3c(C)n(C)n(-c4ccccc4)c3=O)n2)cc1	788 s
O=C(NCCC1=CCCCC1)c1cnc(-c2ccccc2)nc1-c1ccncc1	966 s
